According to patent US9227971B2, “Pyrazolo[1,5-a]pyrimidine compounds as mTOR inhibitors” (Merck Sharp & Dohme Corp., priority 2010, dated 2016):
pIC50: −log10 of the molar value. Read-outs that look alike come from different tables or passages of the source.

Columns and labels:
[1] = system: phosphorylated AKT Ser473 (pAKT S473), mTORC2 activity, PC3 cells; assay: mTOR target engagement assay, immunofluorescent cell-based, pAKT S473 readout (mTORC2 activity)
How it was run: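 After blocking, cells were stained overnight at 4 °C with anti-pAKT S473 antibody, then a fluorescent secondary; inhibition was read as reduced fluorescence intensity.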

[2] = system: phosphorylated 4E-BP1 Thr37/46 (p4E-BP1 Thr37/46), mTORC1 activity, PC3 cells; assay: mTOR target engagement assay, immunofluorescent cell-based, p4E-BP1 Thr37/46 readout (mTORC1 activity); conditions: read-out: p4E-BP1 Thr37/46 IC50
How it was run: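 Read-out is fluorescence intensity of immunostained p4E-BP1 Thr37/46 in fixed PC3 cells, fitted to a logistic curve for IC50 with DMSO-only wells as top. Cells had been exposed to serial compound dilutions for ninety minutes at 37° C in 5% FBS medium with 0.25% DMSO.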

[3] = Homo sapiens, PC-3, Table 3-1, PC3 cells
[4] = Homo sapiens, PC-3, PC3 cells, compound treatment ninety minutes at 37° C.
[5] = Homo sapiens, PC-3, Table 6-1, PC3 cells

Compound	pIC50 [1, 4]	pIC50 [2, 4]	also measured
CS(=O)(=O)c1c([C@@H]2C[C@H]3CC[C@@H](C2)N3C(=O)c2cc(N)n[nH]2)nc2c(-c3ccc(-c4ccc(F)cc4F)nc3)cnn2c1N [Compound 3.129, (3-amino-1H-pyrazol-5-yl)((1R,3s,5S)-3-(7-amino-3-(6-(2,4-difluorophenyl)pyridin-3-yl)-6-(methylsulfonyl)pyrazolo[1,5-a]pyrimidin-5-yl)-8-azabicyclo[3.2.1]octan-8-yl)methanone]			pIC50 [1, 3]: 7.00 to 9.00; pIC50 [2, 3]: 7.00 to 9.00
CC(=O)c1c([C@@H]2C[C@H]3CC[C@@H](C2)N3C(=O)c2nnc[nH]2)nc2c(-c3ccc(-c4nc[nH]n4)nc3)cnn2c1N [Compound 1.1.91, 1-(3-(6-(1H-1,2,4-triazol-3-yl)pyridin-3-yl)-5-((1R,3s,5S)-8-(4H-1,2,4-triazole-3-carbonyl)-8-azabicyclo[3.2.1]octan-3-yl)-7-aminopyrazolo[1,5-a]pyrimidin-6-yl)ethanone]	7.00 to 9.00	7.00 to 9.00	
CC(=O)c1c([C@@H]2C[C@H]3CC[C@@H](C2)N3C(=O)c2nnc[nH]2)nc2c(-c3ccc(-c4ncc[nH]4)nc3)cnn2c1N [Compound 6.4, 1-(3-(6-(1H-imidazol-2-yl)pyridin-3-yl)-5-((1R,3s,5S)-8-(4H-1,2,4-triazole-3-carbonyl)-8-azabicyclo[3.2.1]octan-3-yl)-7-aminopyrazolo[1,5-a]pyrimidin-6-yl)ethanone]			pIC50 [1, 5]: 7.00 to 9.00; pIC50 [2, 5]: 7.00 to 9.00
CC(=O)c1c([C@@H]2C[C@H]3CC[C@@H](C2)N3C(=O)CO)nc2c(-c3ccc(-c4ccn(C)n4)nc3)cnn2c1N [Compound 1.1.60, 1-((1R,3s,5S)-3-(6-acetyl-7-amino-3-(6-(1-methyl-1H-pyrazol-3-yl)pyridin-3-yl)pyrazolo[1,5-a]pyrimidin-5-yl)-8-azabicyclo[3.2.1]octan-8-yl)-2-hydroxyethanone]	6.00 to 7.00	6.00 to 7.00	
Cn1nnc(-c2ccc(-c3cnn4c(N)c(S(C)(=O)=O)c([C@@H]5C[C@H]6CC[C@@H](C5)N6C(=O)CO)nc34)cn2)n1 [Compound 3.43, 1-((1R,3a,5S)-3-(7-amino-3-(6-(2-methyl-2H-tetrazol-5-yl)pyridin-3-yl)-6-(methylsulfonyl)pyrazolo[1,5-a]pyrimidin-5-yl)-8-azabicyclo[3.2.1]octan-8-yl)-2-hydroxyethanone]			pIC50 [1, 3]: 5.00 to 6.00; pIC50 [2, 3]: < 5.00
Nc1cc([C@@H]2C[C@H]3CC[C@@H](C2)N3C(=O)c2nnc[nH]2)nc2c(-c3ccc(-c4ccccc4F)nc3)cnn12 [Compound 2.16, ((1R,3s,5S)-3-(7-amino-3-(6-(2-fluorophenyl)pyridin-3-yl)pyrazolo[1,5-a]pyrimidin-5-yl)-8-azabicyclo[3.2.1]octan-8-yl)(4H-1,2,4-triazol-3-yl)methanone]	6.00 to 7.00	6.00 to 7.00	
CC(=O)c1c([C@@H]2C[C@H]3CC[C@@H](C2)N3C(=O)c2cn[nH]c2N)nc2c(-c3ccc(-c4ccccc4)nc3)cnn2c1N [Compound 1.1.141, 1-(7-amino-5-((1R,3s,5S)-8-(5-amino-1H-pyrazole-4-carbonyl)-8-azabicyclo[3.2.1]octan-3-yl)-3-(6-phenylpyridin-3-yl)pyrazolo[1,5-a]pyrimidin-6-yl)ethanone]	7.00 to 9.00	7.00 to 9.00	
CC(=O)c1c([C@@H]2C[C@H]3CC[C@@H](C2)N3C(=O)c2nnc[nH]2)nc2c(-c3cnc4ccc(CO)cc4c3)cnn2c1N [Compound 1.1.126, 1-(5-((1R,3s,5S)-8-(4H-1,2,4-triazole-3-carbonyl)-8-azabicyclo[3.2.1]octan-3-yl)-7-amino-3-(6-(hydroxymethyl)quinolin-3-yl)pyrazolo[1,5-a]pyrimidin-6-yl)ethanone]	5.00 to 6.00	5.00 to 6.00	
N#Cc1c([C@@H]2C[C@H]3CC[C@@H](C2)N3C(=O)CO)nc2c(-c3ccc(-c4ccccc4)nc3)cnn2c1N [Compound 5.1, 7-amino-5-((1R,3s,5S)-8-(2-hydroxyacetyl)-8-azabicyclo[3.2.1]octan-3-yl)-3-(6-phenylpyridin-3-yl)pyrazolo[1,5-a]pyrimidine-6-carbonitrile]	7.00 to 9.00	6.00 to 7.00	
CC(=O)c1c([C@@H]2C[C@H]3CC[C@@H](C2)N3C(=O)CO)nc2c(-c3ccc(-n4cccn4)nc3)cnn2c1N [Compound 1.1.178, 1-((1R,3s,5S)-3-(3-(6-(1H-pyrazol-1-yl)pyridin-3-yl)-6-acetyl-7-aminopyrazolo[1,5-a]pyrimidin-5-yl)-8-azabicyclo[3.2.1]octan-8-yl)-2-hydroxyethanone]	7.00 to 9.00	6.00 to 7.00	
COc1ccc(-c2ccc(-c3cnn4c(N)c(C(C)=O)c([C@@H]5C[C@H]6CC[C@@H](C5)N6C(=O)c5nnc(N)[nH]5)nc34)cn2)cc1F [Compound 1.1.144, 1-(7-amino-5-((1R,3s,5S)-8-(5-amino-4H-1,2,4-triazole-3-carbonyl)-8-azabicyclo[3.2.1]octan-3-yl)-3-(6-(3-fluoro-4-methoxyphenyl)pyridin-3-yl)pyrazolo[1,5-a]pyrimidin-6-yl)ethanone]	7.00 to 9.00	7.00 to 9.00	
CCn1ccc(-c2ccc(-c3cnn4c(N)c(C(C)=O)c([C@@H]5C[C@H]6CC[C@@H](C5)N6C(=O)c5nnc[nH]5)nc34)cn2)n1 [Compound 1.1.138, 1-(5-((1R,3s,5S)-8-(4H-1,2,4-triazole-3-carbonyl)-8-azabicyclo[3.2.1]octan-3-yl)-7-amino-3-(6-(1-ethyl-1H-pyrazol-3-yl)pyridin-3-yl)pyrazolo[1,5-a]pyrimidin-6-yl)ethanone]	7.00 to 9.00	7.00 to 9.00	
CC(=O)c1c([C@@H]2C[C@H]3CC[C@@H](C2)N3C(=O)c2nnc[nH]2)nc2c(-c3ccc(-c4ccc5nc[nH]c5c4)nc3)cnn2c1N [Compound 1.1.71, 1-(3-(6-(1H-benzo[d]imidazol-6-yl)pyridin-3-yl)-5-((1R,3s,5S)-8-(4H-1,2,4-triazole-3-carbonyl)-8-azabicyclo[3.2.1]octan-3-yl)-7-aminopyrazolo[1,5-a]pyrimidin-6-yl)ethanone]	6.00 to 7.00	6.00 to 7.00	
CS(=O)(=O)c1c([C@@H]2C[C@H]3CC[C@@H](C2)N3C(=N)NO)nc2c(-c3ccc(-c4ccccc4)nc3)cnn2c1N [Compound 8.72, (1R,3s,5S)-3-(7-amino-6-(methylsulfonyl)-3-(6-phenylpyridin-3-yl)pyrazolo[1,5-a]pyrimidin-5-yl)-N-hydroxy-8-azabicyclo[3.2.1]octane-8-carboximidamide]			pIC50 ([1]; PC3 cells): 5.00 to 6.00; pIC50 ([2]; PC3 cells): 5.00 to 6.00
CCC(O)(CC)c1ccc(-c2cnn3c(N)c(C(C)=O)c([C@@H]4C[C@H]5CC[C@@H](C4)N5C(=O)c4nnc[nH]4)nc23)cn1 [Compound 1.1.85, 1-(5-((1R,3s,5S)-8-(4H-1,2,4-triazole-3-carbonyl)-8-azabicyclo[3.2.1]octan-3-yl)-7-amino-3-(6-(3-hydroxypentan-3-yl)pyridin-3-yl)pyrazolo[1,5-a]pyrimidin-6-yl)ethanone]	5.00 to 6.00	5.00 to 6.00	
CS(=O)(=O)c1c([C@@H]2C[C@H]3CC[C@@H](C2)N3c2nnn[nH]2)nc2c(-c3ccc(-c4ccccc4)nc3)cnn2c1N [Compound 3.18, 5-((1R,3s,5S)-8-(1H-tetrazol-5-yl)-8-azabicyclo[3.2.1]octan-3-yl)-6-(methylsulfonyl)-3-(6-phenylpyridin-3-yl)pyrazolo[1,5-a]pyrimidin-7-amine]			pIC50 [1, 3]: < 5.00; pIC50 [2, 3]: < 5.00
